Data from ChEMBL document CHEMBL5376011, “Discovery of Anti-Hypercholesterolemia Agents Targeting LXRα from Marine Microorganism-Derived Natural Products” (J Nat Prod, 2024).
Active and inactive are the calls of the source.

Experiments:
Mus musculus [1] = experiment: Antihypercholesterolemic activity against high cholesterol diet fed C57BL/6J mouse assessed as improvement in hepatocyte liposis at 300 microg/kg, ip administered every 2 days for 15 days by H&E staining based analysis; type: functional, organism-based; conditions: dose 300.0 µg/kg, time 15.0 day
Mus musculus [2] = experiment: Antihypercholesterolemic activity against high cholesterol diet fed LXRalpha knockout C57BL/6J mouse assessed as improvement in hepatic steatosis at 300 microg/kg, ip administered every 2 days for 15 days by Oil red staining based analysis; type: functional, organism-based; conditions: dose 300.0 µg/kg, time 15.0 day
Mus musculus [3] = experiment: Antihypercholesterolemic activity against high cholesterol diet fed C57BL/6J mouse assessed as reduction in FASN protein level at 300 microg/kg, ip administered every 2 days for 15 days by Western blot analysis; type: functional, organism-based; conditions: dose 300.0 µg/kg, time 15.0 day
HepG2 [4] = experiment: Improvement of lipid metabolism in palmitic acid and oleic acid induced human HepG2 cell model of hepatic steatosis assessed as reduction in lipid droplets at 25 uM preincubated with palmitic acid and oleic acid for 48 hrs followed by compound addition and measured after 24 hrs by Oil Red O staining based analysis; type: functional
Mus musculus [5] = experiment: Antihypercholesterolemic activity against high cholesterol diet fed LXRalpha knockout C57BL/6J mouse assessed as reduction in serum aspartate aminotransferase level at 300 microg/kg, ip administered every 2 days for 15 days; type: functional, organism-based; conditions: dose 300.0 µg/kg, time 15.0 day
Mus musculus [6] = experiment: Antihypercholesterolemic activity against high cholesterol diet fed C57BL/6J mouse assessed as reduction in SREBP1 protein level at 300 microg/kg, ip administered every 2 days for 15 days by Western blot analysis; type: functional, organism-based; conditions: dose 300.0 µg/kg, time 15.0 day
HepG2 [7] = experiment: Improvement of lipid metabolism in palmitic acid and oleic acid induced human HepG2 cell model of hepatic steatosis assessed as reduction in triglyceride level at 25 uM preincubated with palmitic acid and oleic acid for 48 hrs followed by compound addition and measured after 24 hrs; type: functional, cell-based
Mus musculus [8] = experiment: Antihypercholesterolemic activity against high cholesterol diet fed LXRalpha knockout C57BL/6J mouse assessed as upregulation in CYP7A1 protein level at 300 microg/kg, ip administered every 2 days for 15 days by Western blot analysis; type: functional, organism-based; conditions: dose 300.0 µg/kg, time 15.0 day
Mus musculus [9] = experiment: Antihypercholesterolemic activity against high cholesterol diet fed C57BL/6J mouse assessed as reduction of fine vacuoles in the cytoplasm at 300 microg/kg, ip administered every 2 days for 15 days by Oil red staining based analysis; type: functional, organism-based; conditions: dose 300.0 µg/kg, time 15.0 day
HepG2 [10] = experiment: Effect on ABCG1 mRNA expression in human HepG2 cells at 25 uM incubated for 24 hrs by RT-qPCR analysis; type: functional, cell-based
Mus musculus [11] = experiment: Antihypercholesterolemic activity against high cholesterol diet fed C57BL/6J mouse assessed as reduction in hepatocyte lysis necrosis at 300 microg/kg, ip administered every 2 days for 15 days by Oil red staining based analysis; type: functional, organism-based; conditions: dose 300.0 µg/kg, time 15.0 day
Mus musculus [12] = experiment: Antihypercholesterolemic activity against high cholesterol diet fed LXRalpha knockout C57BL/6J mouse assessed as reduction in serum total cholesterol level at 300 microg/kg, ip administered every 2 days for 15 days; type: functional, organism-based; conditions: dose 300.0 µg/kg, time 15.0 day
Mus musculus [13] = experiment: Antihypercholesterolemic activity against high cholesterol diet fed C57BL/6J mouse assessed as reduction in SCD1 protein level at 300 microg/kg, ip administered every 2 days for 15 days by Western blot analysis; type: functional, organism-based; conditions: dose 300.0 µg/kg, time 15.0 day
Mus musculus [14] = experiment: Antihypercholesterolemic activity against high cholesterol diet fed LXRalpha knockout C57BL/6J mouse assessed as improvement in hepatic steatosis at 300 microg/kg, ip administered every 2 days for 15 days by H&E staining based analysis; type: functional, organism-based; conditions: dose 300.0 µg/kg, time 15.0 day
Mus musculus [15] = experiment: Antihypercholesterolemic activity against high cholesterol diet induced C57BL/6J mouse assessed as reduction in serum aspartate aminotransferase level at 300 microg/kg, ip administered every 2 days for 15 days; type: functional, organism-based; conditions: dose 300.0 µg/kg, time 15.0 day
[16] = biological target: T1, Oxysterols receptor LXR-alpha (Homo sapiens) (UniProt Q13133); experiment: Agonist activity at LXRalpha in human HepG2 cells assessed as upregulation of CYP7A1 mRNA expression by measuring fold change at 25 uM incubated for 24 hrs by RT-qPCR analysis; type: cell-based; conditions: filed as agonist
T1 sequence (whole entry): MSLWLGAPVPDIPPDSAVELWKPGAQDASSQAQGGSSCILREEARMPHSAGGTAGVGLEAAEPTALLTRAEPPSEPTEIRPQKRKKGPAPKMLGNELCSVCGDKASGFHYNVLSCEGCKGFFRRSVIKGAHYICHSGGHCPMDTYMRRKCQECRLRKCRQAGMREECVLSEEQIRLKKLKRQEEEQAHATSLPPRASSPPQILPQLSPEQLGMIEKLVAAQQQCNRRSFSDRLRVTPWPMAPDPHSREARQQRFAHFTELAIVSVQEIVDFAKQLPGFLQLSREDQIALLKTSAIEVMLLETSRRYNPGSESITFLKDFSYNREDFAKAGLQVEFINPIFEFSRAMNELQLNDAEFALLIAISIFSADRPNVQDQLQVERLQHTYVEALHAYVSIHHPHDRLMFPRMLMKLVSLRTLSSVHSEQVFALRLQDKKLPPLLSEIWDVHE

Mus musculus [17] = experiment: Antihypercholesterolemic activity against high cholesterol diet fed LXRalpha knockout C57BL/6J mouse assessed as reduction in serum low density lipoprotein cholesterol level at 300 microg/kg, ip administered every 2 days for 15 days; type: functional, organism-based; conditions: dose 300.0 µg/kg, time 15.0 day
Mus musculus [18] = experiment: Antihypercholesterolemic activity against high cholesterol diet fed LXRalpha knockout C57BL/6J mouse assessed as upregulation in ABCA1 protein level at 300 microg/kg, ip administered every 2 days for 15 days by Western blot analysis; type: functional, organism-based; conditions: dose 300.0 µg/kg, time 15.0 day
Mus musculus [19] = experiment: Antihypercholesterolemic activity against high cholesterol diet fed C57BL/6J mouse assessed as improvement in hepatocyte degeneration at 300 microg/kg, ip administered every 2 days for 15 days by H&E staining based analysis; type: functional, organism-based; conditions: dose 300.0 µg/kg, time 15.0 day
Mus musculus [20] = experiment: Antihypercholesterolemic activity against high cholesterol diet fed LXRalpha knockout C57BL/6J mouse assessed as improvement in liver lipid droplet accumulation at 300 microg/kg, ip administered every 2 days for 15 days by Oil red staining based analysis; type: functional, organism-based; conditions: dose 300.0 µg/kg, time 15.0 day
Mus musculus [21] = experiment: Antihypercholesterolemic activity against high cholesterol diet fed C57BL/6J mouse assessed as reduction of fine vacuoles in the cytoplasm at 300 microg/kg, ip administered every 2 days for 15 days by H&E staining based analysis; type: functional, organism-based; conditions: dose 300.0 µg/kg, time 15.0 day
HepG2 [22] = experiment: Improvement of lipid metabolism in palmitic acid and oleic acid induced human HepG2 cell model of hepatic steatosis assessed as reduction in total cellular cholesterol level at 25 uM preincubated with palmitic acid and oleic acid for 48 hrs followed by compound addition and measured after 24 hrs; type: functional, cell-based
Mus musculus [23] = experiment: Antihypercholesterolemic activity against high cholesterol diet fed LXRalpha knockout C57BL/6J mouse assessed as reduction in serum alanine aminotransferase level at 300 microg/kg, ip administered every 2 days for 15 days; type: functional, organism-based; conditions: dose 300.0 µg/kg, time 15.0 day
Mus musculus [24] = experiment: Antihypercholesterolemic activity against high cholesterol diet fed C57BL/6J mouse assessed as reduction in degree of hepatic steatosis at 300 microg/kg, ip administered every 2 days for 15 days by H&E staining based analysis; type: functional, organism-based; conditions: dose 300.0 µg/kg, time 15.0 day
[25] = biological target: T1, Oxysterols receptor LXR-alpha (Homo sapiens); experiment: Agonist activity at LXRalpha in human HepG2 cells assessed as upregulation of ABCA1 protein expression level at 25 uM incubated for 24 hrs by Western blot analysis; type: cell-based; conditions: filed as agonist
Mus musculus [26] = experiment: Antihypercholesterolemic activity against high cholesterol diet induced C57BL/6J mouse assessed as reduction in total cholesterol level in plasma at 300 microg/kg, ip administered every 2 days for 15 days; type: functional, organism-based; conditions: dose 300.0 µg/kg, time 15.0 day
Mus musculus [27] = experiment: Antihypercholesterolemic activity against high cholesterol diet induced C57BL/6J mouse assessed as reduction in serum alanine aminotransferase level at 300 microg/kg, ip administered every 2 days for 15 days; type: functional, organism-based; conditions: dose 300.0 µg/kg, time 15.0 day
HepG2 [28] = experiment: Effect on LXRbeta mRNA expression in human HepG2 cells at 25 uM incubated for 24 hrs by RT-qPCR analysis; type: functional, cell-based
[29] = biological target: T2, Oxysterols receptor LXR-alpha (Homo sapiens, UniProt Q13133); experiment: Binding affinity to full length human LXRalpha assessed as dissociation constant by SPR analysis
T2 sequence (Q13133 whole entry): T1 sequence (whole entry)

Mus musculus [30] = experiment: Antihypercholesterolemic activity against high cholesterol diet fed LXRalpha knockout C57BL/6J mouse assessed as improvement in hepatocellular degeneration at 300 microg/kg, ip administered every 2 days for 15 days by H&E staining based analysis; type: functional, organism-based; conditions: dose 300.0 µg/kg, time 15.0 day
Mus musculus [31] = experiment: Antihypercholesterolemic activity against high cholesterol diet induced C57BL/6J mouse assessed as reduction in hepatocyte damage at 300 microg/kg, ip administered every 2 days for 15 days; type: functional, organism-based; conditions: dose 300.0 µg/kg, time 15.0 day
Mus musculus [32] = experiment: Antihypercholesterolemic activity against high cholesterol diet fed C57BL/6J mouse assessed as improvement in hepatocyte liposis at 300 microg/kg, ip administered every 2 days for 15 days by Oil red staining based analysis; type: functional, organism-based; conditions: dose 300.0 µg/kg, time 15.0 day
Mus musculus [33] = experiment: Antihypercholesterolemic activity against high cholesterol diet fed C57BL/6J mouse assessed as reduction in degree of hepatic steatosis at 300 microg/kg, ip administered every 2 days for 15 days by Oil red staining based analysis; type: functional, organism-based; conditions: dose 300.0 µg/kg, time 15.0 day
[34] = Cytotoxicity against human HepG2 cells assessed as reduction in cell viability incubated for 24 hrs by CCK8 assay; type: toxicity, cell-based
[35] = biological target: T1, Oxysterols receptor LXR-alpha (Homo sapiens); experiment: Agonist activity at LXRalpha in human HepG2 cells assessed as upregulation of CYP7A1 protein expression level at 25 uM incubated for 24 hrs by Western blot analysis; type: cell-based; conditions: filed as agonist
Mus musculus [36] = experiment: Antihypercholesterolemic activity against high cholesterol diet fed LXRalpha knockout C57BL/6J mouse assessed as improvement in liver lipid droplet accumulation at 300 microg/kg, ip administered every 2 days for 15 days by H&E staining based analysis; type: functional, organism-based; conditions: dose 300.0 µg/kg, time 15.0 day
Mus musculus [37] = experiment: Antihypercholesterolemic activity against high cholesterol diet fed LXRalpha knockout C57BL/6J mouse assessed as reduction in serum high density lipoprotein cholesterol level at 300 microg/kg, ip administered every 2 days for 15 days; type: functional, organism-based; conditions: dose 300.0 µg/kg, time 15.0 day
Mus musculus [38] = experiment: Antihypercholesterolemic activity against high cholesterol diet fed C57BL/6J mouse assessed as reduction in hepatocyte lysis necrosis at 300 microg/kg, ip administered every 2 days for 15 days by H&E staining based analysis; type: functional, organism-based; conditions: dose 300.0 µg/kg, time 15.0 day
Mus musculus [39] = experiment: Antihypercholesterolemic activity against high cholesterol diet fed LXRalpha knockout C57BL/6J mouse assessed as reduction in serum triglycerides level at 300 microg/kg, ip administered every 2 days for 15 days; type: functional, organism-based; conditions: dose 300.0 µg/kg, time 15.0 day
Mus musculus [40] = experiment: Antihypercholesterolemic activity against high cholesterol diet fed LXRalpha knockout C57BL/6J mouse assessed as improvement in hepatocellular degeneration at 300 microg/kg, ip administered every 2 days for 15 days by Oil red staining based analysis; type: functional, organism-based; conditions: dose 300.0 µg/kg, time 15.0 day
Mus musculus [41] = experiment: Antihypercholesterolemic activity against high cholesterol diet induced C57BL/6J mouse assessed as reduction in plasma low-density lipoprotein cholesterol level at 300 microg/kg, ip administered every 2 days for 15 days; type: functional, organism-based; conditions: dose 300.0 µg/kg, time 15.0 day
Mus musculus [42] = experiment: Antihypercholesterolemic activity against high cholesterol diet fed C57BL/6J mouse assessed as improvement in hepatocyte degeneration at 300 microg/kg, ip administered every 2 days for 15 days by Oil red staining based analysis; type: functional, organism-based; conditions: dose 300.0 µg/kg, time 15.0 day
[43] = biological target: T1, Oxysterols receptor LXR-alpha (Homo sapiens); experiment: Agonist activity at LXRalpha in human HepG2 cells assessed as upregulation of ABCA1 mRNA expression by measuring fold change at 25 uM incubated for 24 hrs by RT-qPCR analysis; type: cell-based; conditions: filed as agonist

COc1ccc2c3c([nH]c2c1)[C@H](C=C(C)C)N1C(=O)[C@@H]2CCCN2C(=O)[C@]1(O)[C@H]3O
active: Activity (Mus musculus [1]) | Activity (Mus musculus [2]) | Activity (Mus musculus [3]) | Activity (HepG2 [4]) | Activity (Mus musculus [6]) | Activity (HepG2 [7]) | Activity (Mus musculus [9]) | Activity (Mus musculus [11]) | Activity (Mus musculus [13]) | Activity (Mus musculus [14]) | Activity (Mus musculus [15]) | Activity (Mus musculus [19]) | Activity (Mus musculus [20]) | Activity (Mus musculus [21]) | Activity (HepG2 [22]) | Activity (Mus musculus [24]) | Activity [25] | Activity (Mus musculus [26]) | Activity (Mus musculus [27]) | Activity (Mus musculus [30]) | Activity (Mus musculus [31]) | Activity (Mus musculus [32]) | Activity (Mus musculus [33]) | Activity [35] | Activity (Mus musculus [36]) | Activity (Mus musculus [38]) | Activity (Mus musculus [40]) | Activity (Mus musculus [41]) | Activity (Mus musculus [42])
2.13: fold change (FC) [43]
5.02: fold change (FC) [16]
5.6 nM: Kd [29]
inactive: Activity (Mus musculus [5]) | Activity (Mus musculus [8]) | Activity (HepG2 [10]) | Activity (Mus musculus [12]) | Activity (Mus musculus [17]) | Activity (Mus musculus [18]) | Activity (Mus musculus [23]) | Activity (HepG2 [28]) | Activity (Mus musculus [37]) | Activity (Mus musculus [39])
> 50000 nM: IC50 at 24 h [34]
